We go through 23 compounds from patent US12570642B2, “GLP-IR modulating compounds” (Gilead Sciences, Inc., priority 2021, dated 2026).

pEC50: −log10 of the molar value.

Sequence of GLP-1R (P43220 24-463): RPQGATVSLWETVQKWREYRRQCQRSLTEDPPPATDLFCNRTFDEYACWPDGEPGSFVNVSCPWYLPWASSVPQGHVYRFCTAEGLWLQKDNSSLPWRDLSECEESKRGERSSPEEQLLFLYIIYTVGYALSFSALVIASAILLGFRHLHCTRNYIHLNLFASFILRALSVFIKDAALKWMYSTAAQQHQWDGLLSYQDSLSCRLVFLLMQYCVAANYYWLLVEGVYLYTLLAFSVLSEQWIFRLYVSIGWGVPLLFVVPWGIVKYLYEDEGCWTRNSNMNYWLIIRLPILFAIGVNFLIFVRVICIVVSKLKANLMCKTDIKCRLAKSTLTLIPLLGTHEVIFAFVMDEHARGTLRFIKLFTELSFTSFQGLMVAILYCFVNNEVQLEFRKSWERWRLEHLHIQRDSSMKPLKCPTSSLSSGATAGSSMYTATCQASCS

The test addresses GLP-1R (Homo sapiens, UniProt P43220). The test is described as follows: GLP-1R Activation - cAMP Assay. In kind it is cell-based. As to conditions: cAMP increase in CHO cells stably expressing GLP-1R; each compound run on one of the two cAMP assays (Assay 1 or Assay 2, not specified). Put shortly: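 cAMP rise read by HTRF after 30 min agonist exposure (10-point titration, 37 °C) in HBSS/20 mM Hepes/0.1% BSA, following 1 h pre-incubation. Cells: stable GLP-1R CHO line, 1,000/well, seeded overnight. Sigmoidal fit of response vs log concentration gives EC50.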
As for `CC1(C)COC[C@H]1n1c(Cc2cc(F)c(-c3cccc(OCc4c(F)cccc4F)n3)cc2F)nc2ccc(C(=O)O)cc21` [Example 476, (S)-2-(4-(6-((2,6-difluorobenzyl)oxy)pyridin-2-yl)-2,5-difluorobenzyl)-1-(4,4-dimethyltetrahydrofuran-3-yl)-1H-benzo[d]imidazole-6-carboxylic acid], the pEC50 is 9.21.

In turn, `CC1(C)COC[C@H]1n1c(Cc2cc(F)c(-c3ccc(F)c(OCc4ccccc4F)n3)cc2F)nc2ccc(C(=O)O)cc21` [Example 477, (S)-2-(2,5-difluoro-4-(5-fluoro-6-((2-fluorobenzyl)oxy)pyridin-2-yl)benzyl)-1-(4,4-dimethyltetrahydrofuran-3-yl)-1H-benzo[d]imidazole-6-carboxylic acid] showed a pEC50 of 9.77. In turn, `CC1(C)COC[C@H]1n1c(Cc2cc(F)c(-c3cccc(OCc4ccccc4F)n3)cc2F)nc2ccc(C(=O)O)cc21` [Example 478, (S)-2-(2,5-difluoro-4-(6-((2-fluorobenzyl)oxy)pyridin-2-yl)benzyl)-1-(4,4-dimethyltetrahydrofuran-3-yl)-1H-benzo[d]imidazole-6-carboxylic acid] showed a pEC50 of 9.60. Regarding `CC1(C)COC[C@H]1n1c(Cc2c(F)cc(-c3ccc(F)c(OCc4ccc(C#N)cc4F)n3)c(F)c2F)nc2c(F)cc(C(=O)O)cc21` [Example 479, (S)-2-(4-(6-((4-cyano-2-fluorobenzyl)oxy)-5-fluoropyridin-2-yl)-2,3,6-trifluorobenzyl)-1-(4,4-dimethyltetrahydrofuran-3-yl)-4-fluoro-1H-benzo[d]imidazole-6-carboxylic acid], the pEC50 is 9.60. Regarding `C[C@H]1COC[C@H]1n1c(Cc2cc(F)c(-c3ccc(F)c(OCc4ccc(C#N)cc4)n3)cc2F)nc2ccc(C(=O)O)cc21` [Example 480, 2-(4-(6-((4-cyanobenzyl)oxy)-5-fluoropyridin-2-yl)-2,5-difluorobenzyl)-1-((3S,4R)-4-methyltetrahydrofuran-3-yl)-1H-benzo[d]imidazole-6-carboxylic acid], the pEC50 was 9.65. The figure for `C[C@H]1COC[C@H]1n1c(Cc2cc(F)c(-c3ccc(F)c(OCc4cc(F)c(C#N)cc4F)n3)cc2F)nc2ccc(C(=O)O)cc21` [Example 481, 2-(4-(6-((4-cyano-2,5-difluorobenzyl)oxy)-5-fluoropyridin-2-yl)-2,5-difluorobenzyl)-1-((3S,4R)-4-methyltetrahydrofuran-3-yl)-1H-benzo[d]imidazole-6-carboxylic acid] is 9.05; for `CC1(C)COC[C@H]1n1c(Cc2c(F)cc(-c3ccc(F)c(OCc4ccc(C#N)cc4F)n3)c(F)c2F)nc2ccc(C(=O)O)cc21` [Example 482, (S)-2-(4-(6-((4-cyano-2-fluorobenzyl)oxy)-5-fluoropyridin-2-yl)-2,3,6-trifluorobenzyl)-1-(4,4-dimethyltetrahydrofuran-3-yl)-1H-benzo[d]imidazole-6-carboxylic acid] it is 10.96; for `CC1(C)COC[C@H]1n1c(Cc2cc(F)c(-c3ccc(F)c(OCc4cc(F)c(C#N)cc4F)n3)cc2F)nc2c(F)cc(C(=O)O)cc21` [Example 483, (S)-2-(4-(6-((4-cyano-2,5-difluorobenzyl)oxy)-5-fluoropyridin-2-yl)-2,5-difluorobenzyl)-1-(4,4-dimethyltetrahydrofuran-3-yl)-4-fluoro-1H-benzo[d]imidazole-6-carboxylic acid] it is 10.66. As to `C[C@H]1COC[C@H]1n1c(Cc2cc(F)c(-c3ccnc(OCc4ccc(Cl)cc4F)n3)cc2F)nc2ccc(C(=O)O)cc21` [Example 484, 2-(4-(2-((4-chloro-2-fluorobenzyl)oxy)pyrimidin-4-yl)-2,5-difluorobenzyl)-1-((3S,4R)-4-methyltetrahydrofuran-3-yl)-1H-benzo[d]imidazole-6-carboxylic acid], the pEC50 was 9.81.

In turn, `COCCn1c(Cc2c(F)cc(-c3ccc(F)c(OCc4ccc(Cl)cc4F)n3)c(F)c2F)nc2c(F)cc(C(=O)O)cc21` [Example 485, 2-(4-(6-((4-chloro-2-fluorobenzyl)oxy)-5-fluoropyridin-2-yl)-2,3,6-trifluorobenzyl)-4-fluoro-1-(2-methoxyethyl)-1H-benzo[d]imidazole-6-carboxylic acid] had a pEC50 of 9.69. In turn, `C[C@H]1COC[C@H]1n1c(Cc2cc(F)c(-c3ccc(F)c(OCc4ccc(C#N)cc4F)n3)cc2F)nc2ccc(C(=O)O)cc21` [Example 486, 2-(4-(6-((4-cyano-2-fluorobenzyl)oxy)-5-fluoropyridin-2-yl)-2,5-difluorobenzyl)-1-((3S,4R)-4-methyltetrahydrofuran-3-yl)-1H-benzo[d]imidazole-6-carboxylic acid] gave a pEC50 of 10.27. As for `CC1(C)COC[C@H]1n1c(Cc2cc(F)c(-c3cccc(OCc4cc(F)c(C#N)cc4F)n3)cc2F)nc2ccc(C(=O)O)cc21` [Example 487, (S)-2-(4-(6-((4-cyano-2,5-difluorobenzyl)oxy)pyridin-2-yl)-2,5-difluorobenzyl)-1-(4,4-dimethyltetrahydrofuran-3-yl)-1H-benzo[d]imidazole-6-carboxylic acid], the figure is 9.80; as for `CC1(C)COC[C@H]1n1c(Cc2cc(F)c(-c3cccc(OCc4ccc(Cl)c(F)c4F)n3)cc2F)nc2ccc(C(=O)O)cc21` [Example 488, (S)-2-(4-(6-((4-chloro-2,3-difluorobenzyl)oxy)pyridin-2-yl)-2,5-difluorobenzyl)-1-(4,4-dimethyltetrahydrofuran-3-yl)-1H-benzo[d]imidazole-6-carboxylic acid], 9.55; as for `CC1(C)COC[C@H]1n1c(Cc2cc(F)c(-c3cccc(OCc4c(F)cc(Cl)cc4F)n3)cc2F)nc2ccc(C(=O)O)cc21` [Example 489, (S)-2-(4-(6-((4-chloro-2,6-difluorobenzyl)oxy)pyridin-2-yl)-2,5-difluorobenzyl)-1-(4,4-dimethyltetrahydrofuran-3-yl)-1H-benzo[d]imidazole-6-carboxylic acid], 9.47. As to `CC1(C)COC[C@H]1n1c(Cc2cc(F)c(-c3cccc(OCc4cc(F)c(Cl)cc4F)n3)cc2F)nc2ccc(C(=O)O)cc21` [Example 490, (S)-2-(4-(6-((4-chloro-2,5-difluorobenzyl)oxy)pyridin-2-yl)-2,5-difluorobenzyl)-1-(4,4-dimethyltetrahydrofuran-3-yl)-1H-benzo[d]imidazole-6-carboxylic acid], the pEC50 was 9.74.

On to `CC1(C)COC[C@H]1n1c(Cc2cc(F)c(-c3ccc(F)c(OCc4cc(F)c(C#N)cc4F)n3)cc2F)nc2ccc(C(=O)O)cc21` [Example 491, (S)-2-(4-(6-((4-cyano-2,5-difluorobenzyl)oxy)-5-fluoropyridin-2-yl)-2,5-difluorobenzyl)-1-(4,4-dimethyltetrahydrofuran-3-yl)-1H-benzo[d]imidazole-6-carboxylic acid], for which the pEC50 was 10.10. The figure for `CC1(C)COC[C@H]1n1c(Cc2cc(F)c(-c3cccc(OCc4ccc(C#N)c(F)c4F)n3)cc2F)nc2ccc(C(=O)O)cc21` [Example 492, (S)-2-(4-(6-((4-cyano-2,3-difluorobenzyl)oxy)pyridin-2-yl)-2,5-difluorobenzyl)-1-(4,4-dimethyltetrahydrofuran-3-yl)-1H-benzo[d]imidazole-6-carboxylic acid] is 9.72; for `CC1(C)COC[C@H]1n1c(Cc2cc(F)c(-c3cccc(OCc4c(F)cc(C#N)cc4F)n3)cc2F)nc2ccc(C(=O)O)cc21` [Example 493, (S)-2-(4-(6-((4-cyano-2,6-difluorobenzyl)oxy)pyridin-2-yl)-2,5-difluorobenzyl)-1-(4,4-dimethyltetrahydrofuran-3-yl)-1H-benzo[d]imidazole-6-carboxylic acid] it is 9.56. The figure for `C[C@H]1COC[C@H]1n1c(Cc2cc(F)c(-c3cccc(OCc4ccc(C#N)cc4F)n3)cc2F)nc2ccc(C(=O)O)cc21` [Example 494, 2-(4-(6-((4-cyano-2-fluorobenzyl)oxy)pyridin-2-yl)-2,5-difluorobenzyl)-1-((3S,4R)-4-methyltetrahydrofuran-3-yl)-1H-benzo[d]imidazole-6-carboxylic acid] is 10.29; for `CC1(C)COC[C@H]1n1c(Cc2cc(F)c(-c3ccc(F)c(OCc4ccc(Cl)cc4F)n3)cc2F)nc2c(F)cc(C(=O)O)cc21` [Example 495, (S)-2-(4-(6-((4-chloro-2-fluorobenzyl)oxy)-5-fluoropyridin-2-yl)-2,5-difluorobenzyl)-1-(4,4-dimethyltetrahydrofuran-3-yl)-4-fluoro-1H-benzo[d]imidazole-6-carboxylic acid] it is 9.84; for `CC1(C)COC[C@H]1n1c(Cc2cc(F)c(-c3ccc(F)c(OCc4ccc(C#N)cc4F)n3)cc2F)nc2ccc(C(=O)O)cc21` [Example 496, (S)-2-(4-(6-((4-cyano-2-fluorobenzyl)oxy)-5-fluoropyridin-2-yl)-2,5-difluorobenzyl)-1-(4,4-dimethyltetrahydrofuran-3-yl)-1H-benzo[d]imidazole-6-carboxylic acid] it is 10.59. As for `CC1(C)COC[C@H]1n1c(Cc2cc(F)c(-c3ccc(F)c(OCc4ccc(Cl)cc4F)n3)cc2F)nc2ccc(C(=O)O)cc21` [Example 497, (S)-2-(4-(6-((4-chloro-2-fluorobenzyl)oxy)-5-fluoropyridin-2-yl)-2,5-difluorobenzyl)-1-(4,4-dimethyltetrahydrofuran-3-yl)-1H-benzo[d]imidazole-6-carboxylic acid], the figure is 9.69; as for `CC1(C)COC[C@H]1n1c(Cc2cc(F)c(-c3cccc(OCc4c(F)cc(C#N)cc4F)n3)cc2F)nc2c(F)cc(C(=O)O)cc21` [Example 498, (S)-2-(4-(6-((4-cyano-2,6-difluorobenzyl)oxy)pyridin-2-yl)-2,5-difluorobenzyl)-1-(4,4-dimethyltetrahydrofuran-3-yl)-4-fluoro-1H-benzo[d]imidazole-6-carboxylic acid], 9.29.
